These results are taken from the OligoGym collection.

Oligonucleotides are written 5' to 3', each unit as a sugar letter and its base; * is a phosphorothioate linkage, no mark a phosphodiester; rarer units and linkages stand in square brackets, end groups in braces. Plain capitals give the bases only. d = 2'-deoxy (DNA); r = 2'-OH (RNA)
Also: test concentration or dose not given here.

One series concerns the target UBE2V1. Kind of series: reporter assay of Huesken 2005. The following applies: siRNA. Background: Reporter assays use an easily measured gene product as a stand-in for the process of interest.
Turning to “sense rUrUrGrUrCrCrUrGrCrArArGrArGrCrUrUrCrGdTdT / antisense rCrGrArArGrCrUrCrUrUrGrCrArGrGrArCrArAdCdT”, the normalised inhibition (eCFP-eYFP dual reporter) stood at 51.9%.

Target in another series: not listed separately
Nature of the series: reporter assay of Huesken 2005. Conditions: siRNA.
Substance “sense rArArArCrGrCrCrUrArCrGrGrGrArGrUrCrArAdTdT / antisense rUrUrGrArCrUrCrCrCrGrUrArGrGrCrGrUrUrUdGdC” gave a normalised inhibition (eCFP-eYFP dual reporter) of 93.6%. Still for that read-out and setting: for “sense rArArGrArArArCrUrUrGrCrUrCrCrArGrArUrUdTdT / antisense rArArUrCrUrGrGrArGrCrArArGrUrUrUrCrUrUdCdT” the value was 79%; for “sense rArArUrCrUrGrGrCrArGrArCrUrArCrArGrUrUdTdT / antisense rArArCrUrGrUrArGrUrCrUrGrCrCrArGrArUrUdCdC”, 81.7%; for “sense rArArUrGrArGrCrUrCrCrUrUrArCrUrUrArArCdTdT / antisense rGrUrUrArArGrUrArArGrGrArGrCrUrCrArUrUdCdC”, 70.8%. Still for that read-out and setting: for “sense rArCrArCrCrArGrArGrCrCrUrGrCrCrCrCrArCdTdT / antisense rGrUrGrGrGrGrCrArGrGrCrUrCrUrGrGrUrGrUdGdA” the value was 72.8%; for “sense rArCrCrCrUrUrUrArCrArGrArArCrArCrCrCrAdTdT / antisense rUrGrGrGrUrGrUrUrCrUrGrUrArArArGrGrGrUdGdG”, 86.5%; for “sense rArCrUrCrCrUrUrCrCrUrUrCrUrCrUrGrArArGdTdT / antisense rCrUrUrCrArGrArGrArArGrGrArArGrGrArGrUdCdC”, 50.7%. Consider “sense rArCrUrGrArUrGrUrUrCrCrUrUrGrUrGrGrArCdTdT / antisense rGrUrCrCrArCrArArGrGrArArCrArUrCrArGrUdGdA”, for which the normalised inhibition (eCFP-eYFP dual reporter) was determined as 55.2%. The same measure, in the same setting: for “sense rArCrUrUrArArCrUrUrCrUrGrArGrCrArArUrAdTdT / antisense rUrArUrUrGrCrUrCrArGrArArGrUrUrArArGrUdAdA” the value was 90.7%. Same read-out and setting: for “sense rArGrArArCrArCrCrCrArGrGrArArUrUrCrUrUdTdT / antisense rArArGrArArUrUrCrCrUrGrGrGrUrGrUrUrCrUdGdT” the value was 84.5%. The same measure, in the same setting: to “sense rArGrArArGrArArArCrUrUrGrCrUrCrCrArGrAdTdT / antisense rUrCrUrGrGrArGrCrArArGrUrUrUrCrUrUrCrUdCdA” belongs 90%; to “sense rArGrArCrUrArCrArGrUrUrUrCrUrUrUrCrCrCdTdT / antisense rGrGrGrArArArGrArArArCrUrGrUrArGrUrCrUdGdC”, 55.6%. “sense rArGrCrGrGrGrArGrArGrArGrCrArArCrArGrGdTdT / antisense rCrCrUrGrUrUrGrCrUrCrUrCrUrCrCrCrGrCrUdGdC” had a normalised inhibition (eCFP-eYFP dual reporter) of 43.5%. With “sense rArGrGrUrCrArCrCrArGrArGrUrGrGrArArArCdTdT / antisense rGrUrUrUrCrCrArCrUrCrUrGrGrUrGrArCrCrUdTdT”, the normalised inhibition (eCFP-eYFP dual reporter) was found to be 94.3%.

For “sense rArGrUrGrArUrCrCrCrGrGrGrGrCrUrGrArGrAdTdT / antisense rUrCrUrCrArGrCrCrCrCrGrGrGrArUrCrArCrUdGdG”, the normalised inhibition (eCFP-eYFP dual reporter) came to 94.9%. Take “sense rArUrUrGrUrUrCrCrUrGrUrGrArArCrUrGrUrGdTdT / antisense rCrArCrArGrUrUrCrArCrArGrGrArArCrArArUdGdA”: the normalised inhibition (eCFP-eYFP dual reporter) was found to be 76.9%. On the same count and under the same terms, for “sense rCrArArUrCrCrGrCrCrCrCrArCrCrCrUrUrUrAdTdT / antisense rUrArArArGrGrGrUrGrGrGrGrCrGrGrArUrUrGdGdG” the value was 80.2%; for “sense rCrArCrCrArGrArGrCrCrUrGrCrCrCrCrArCrCdTdT / antisense rGrGrUrGrGrGrGrCrArGrGrCrUrCrUrGrGrUrGdTdG”, 90.4%; for “sense rCrArCrCrArGrArGrUrGrGrArArArCrUrCrArCdTdT / antisense rGrUrGrArGrUrUrUrCrCrArCrUrCrUrGrGrUrGdAdC”, 92.8%. Still for that read-out and setting: to “sense rCrArGrGrGrGrCrArGrCrGrGrGrArGrArGrArGdTdT / antisense rCrUrCrUrCrUrCrCrCrGrCrUrGrCrCrCrCrUrGdAdA” belongs 66.2%.

“sense rCrArGrGrGrUrArUrGrCrArCrArCrCrCrGrUrGdTdT / antisense rCrArCrGrGrGrUrGrUrGrCrArUrArCrCrCrUrGdTdT” yielded a normalised inhibition (eCFP-eYFP dual reporter) of 70.6%. As for “sense rCrCrArCrArUrGrGrUrGrUrGrGrArArUrCrUrGdTdT / antisense rCrArGrArUrUrCrCrArCrArCrCrArUrGrUrGrGdCdA”, the normalised inhibition (eCFP-eYFP dual reporter) came out at 40.2%. Still for that read-out and setting: for “sense rCrCrArGrArGrUrGrGrArArArCrUrCrArCrArCdTdT / antisense rGrUrGrUrGrArGrUrUrUrCrCrArCrUrCrUrGrGdTdG” the value was 95.3%. Same read-out and setting: for “sense rCrCrArGrGrGrGrArCrArGrGrCrArGrCrArGrGdTdT / antisense rCrCrUrGrCrUrGrCrCrUrGrUrCrCrCrCrUrGrGdGdC” the value was 45.6%. The same measure, in the same setting: to “sense rCrCrCrGrGrGrGrCrUrGrArGrArArArGrUrUrCdTdT / antisense rGrArArCrUrUrUrCrUrCrArGrCrCrCrCrGrGrGdAdT” belongs 85.4%. The substance “sense rCrCrUrGrUrCrArGrGrGrGrUrCrGrGrArGrUrGdTdT / antisense rCrArCrUrCrCrGrArCrCrCrCrUrGrArCrArGrGdCdA” had a normalised inhibition (eCFP-eYFP dual reporter) of 72.5%. On the same count and under the same terms, to “sense rCrCrUrUrGrGrArArArCrGrArArCrCrArArGrCdTdT / antisense rGrCrUrUrGrGrUrUrCrGrUrUrUrCrCrArArGrGdGdA” belongs 85.8%; to “sense rCrGrGrGrGrCrUrGrArGrArArArGrUrUrCrGrUdTdT / antisense rArCrGrArArCrUrUrUrCrUrCrArGrCrCrCrCrGdGdG”, 95.2%; to “sense rCrGrUrUrUrCrArUrUrGrUrUrCrCrUrGrUrGrAdTdT / antisense rUrCrArCrArGrGrArArCrArArUrGrArArArCrGdAdC”, 54.2%. The substance “sense rCrUrCrUrCrUrGrCrCrArCrArUrGrGrUrGrUrGdTdT / antisense rCrArCrArCrCrArUrGrUrGrGrCrArGrArGrArGdAdC” gave a normalised inhibition (eCFP-eYFP dual reporter) of 46.7%. On the same count and under the same terms, for “sense rCrUrCrUrGrUrCrUrCrUrCrUrGrCrCrArCrArUdTdT / antisense rArUrGrUrGrGrCrArGrArGrArGrArCrArGrArGdCdC” the value was 62.3%. Still for that read-out and setting: for “sense rCrUrUrArGrUrCrCrCrCrUrCrUrUrUrCrUrGrGdTdT / antisense rCrCrArGrArArArGrArGrGrGrGrArCrUrArArGdGdG” the value was 87.5%; for “sense rCrUrUrCrUrGrArGrCrArArUrArUrCrCrCrCrAdTdT / antisense rUrGrGrGrGrArUrArUrUrGrCrUrCrArGrArArGdTdT”, 93%; for “sense rCrUrUrGrArGrGrGrArGrArGrUrUrGrUrArCrCdTdT / antisense rGrGrUrArCrArArCrUrCrUrCrCrCrUrCrArArGdCdC”, 63.4%.

“sense rCrUrUrGrCrCrUrCrUrGrArGrGrArArUrGrArGdTdT / antisense rCrUrCrArUrUrCrCrUrCrArGrArGrGrCrArArGdAdA” registered a normalised inhibition (eCFP-eYFP dual reporter) of 59.8%. Regarding “sense rGrArGrArGrArGrCrArArCrArGrGrGrUrArUrGdTdT / antisense rCrArUrArCrCrCrUrGrUrUrGrCrUrCrUrCrUrCdCdC”, the normalised inhibition (eCFP-eYFP dual reporter) is 85.5%. As for “sense rGrArGrGrArCrUrCrCrUrUrCrCrUrUrCrUrCrUdTdT / antisense rArGrArGrArArGrGrArArGrGrArGrUrCrCrUrCdTdG”, the normalised inhibition (eCFP-eYFP dual reporter) was determined as 81.2%. As for “sense rGrArGrUrCrArArArGrGrUrCrArCrCrArGrArGdTdT / antisense rCrUrCrUrGrGrUrGrArCrCrUrUrUrGrArCrUrCdCdC”, the normalised inhibition (eCFP-eYFP dual reporter) was 85.9%.

In turn, “sense rGrArUrUrCrCrArCrCrArGrUrUrUrArGrArArGdTdT / antisense rCrUrUrCrUrArArArCrUrGrGrUrGrGrArArUrCdTdG” came in with a normalised inhibition (eCFP-eYFP dual reporter) of 84%. In turn, “sense rGrArUrUrUrArGrGrCrUrUrGrArGrGrGrArGrAdTdT / antisense rUrCrUrCrCrCrUrCrArArGrCrCrUrArArArUrCdCdA” gave a normalised inhibition (eCFP-eYFP dual reporter) of 90.8%.

Regarding “sense rGrCrArArCrArGrGrGrUrArUrGrCrArCrArCrCdTdT / antisense rGrGrUrGrUrGrCrArUrArCrCrCrUrGrUrUrGrCdTdC”, the normalised inhibition (eCFP-eYFP dual reporter) was 72.5%.

On to “sense rGrCrCrCrUrCrCrUrGrUrGrArCrCrUrCrCrArUdTdT / antisense rArUrGrGrArGrGrUrCrArCrArGrGrArGrGrGrCdAdC”, for which the normalised inhibition (eCFP-eYFP dual reporter) is 89%.

“sense rGrCrCrUrArCrGrGrGrArGrUrCrArArArGrGrUdTdT / antisense rArCrCrUrUrUrGrArCrUrCrCrCrGrUrArGrGrCdGdT” registered a normalised inhibition (eCFP-eYFP dual reporter) of 91.5%. Same read-out and setting: to “sense rGrCrCrUrUrCrArUrCrCrArCrCrUrUrCrCrCrUdTdT / antisense rArGrGrGrArArGrGrUrGrGrArUrGrArArGrGrCdAdG” belongs 85.7%; to “sense rGrGrCrArGrArCrUrArCrArGrUrUrUrCrUrUrUdTdT / antisense rArArArGrArArArCrUrGrUrArGrUrCrUrGrCrCdAdG”, 86%; to “sense rGrGrCrArGrCrGrGrGrArGrArGrArGrCrArArCdTdT / antisense rGrUrUrGrCrUrCrUrCrUrCrCrCrGrCrUrGrCrCdCdC”, 61.9%. The same measure, in the same setting: to “sense rGrGrCrArGrGrArGrArUrArGrCrCrCrArGrGrGdTdT / antisense rCrCrCrUrGrGrGrCrUrArUrCrUrCrCrUrGrCrCdAdC” belongs 67.7%; to “sense rGrGrCrUrCrUrGrUrCrUrCrUrCrUrGrCrCrArCdTdT / antisense rGrUrGrGrCrArGrArGrArGrArCrArGrArGrCrCdAdC”, 45.8%.
